Assay results published in EP1655608A1, “CFTR as a component of an autophagy signaling pathway, applications thereof to autophagic diseases, and determination of cystic fibrosis as an autophagic disease” (priority 2004, dated 2006).
“Also recorded” adds a separate entry of the source.

Columns and labels:
CFTR-EGFP = test: Subcellular distribution of CFTR-EGFP by confocal microscopy; format: cell-based, hamster; details: BHK cells, Lindane 24 h, NH4Cl 5 mM in medium
Protocol: BHK-21 (Baby hamster kidney epithelial cells, ATCC) stably expressing CFTR-EGFP cell-line was maintained in Dulbecco's modified Eagle's medium (DMEM, GIBCO) containing 10% fetal calf serum (GIBCO).
(§1) Autophagy was induced either by starvation or by treatment with Lindane under nutrient-rich condition. For Lindane treatment, cells were serum-starved for 2-16 hours in DMEM/Ham's F12 (1:1, GIBCO #61965-026: F12 GIBCO #31765-027) supplemented with either 1% Insulin-Transferrin-SeleniumA (GIBCO #51300-044) or 0.1% bovine serum albumin (A7030, Sigma) and treated with Lindane (50 µM, Sigma, H4500).

CFTR Δex10 = test: Whole-cell patch-clamp Cl- currents in renal proximal PCT cells; format: cell-based, mouse
Protocol: Whole cell currents were monitored from Sertoli cells, CFTR^-/- and WT renal epithelial cells with an RK 400 amplifier (Biologic, Münster, Germany) as previously described (40). The bath (extracellular) solution consisted of 140 mM NMDGCl (N-methyl-D-glucamine chloride), 5 mM D-Glucose, 1 mM CaCl2, and 10 mM HEPES, pH 7.4. Patch pipette (intracellular) solution contained 140 mM NMDGCl, 5 mM D-Glucose, 5 mM EGTA, 5 mM MgATP, and 10 mM HEPES, pH 7.4. Osmolarity of both solutions was adjusted to 280 mOSM by adding mannitol. These solutions were designed to study Cl^- currents because Cl^- is the sole permeant ion in these conditions and to prevent Ca^2+ activated Cl^- currents by the addition of EGTA in the patch solution. After establishment of whole cell configuration, cells were stimulated by the addition of Lindane (50 µM), FSK (10 µM), vehicle (Me2S0 or ethanol) in the absence or the presence of NPPB (0.1mM), DIDS (4,4'-diisothiocyanatostilbene-2,2'-disulfonic acid, 1 mM, Sigma), glibenclamide (0.1mM, Sigma) or PD98059 (10 µM) in the bath solution. The cell membrane potential was clamped at -50mV and 400 ms pulses were applied from -100 to +120 mV with increments of 20 mV every 2 s. To generate whole cell current-voltage (I-V) relationship, membrane currents resulting from voltage stimuli were recorded for at least 3 min and analysed using an IBM-AT-compatible computer equipped with Digidata 1200 interface (Axon Instruments) and pCLAMP software (versions 5.51 and 6.0, Axon Instruments), respectively. Statistics-Results are expressed as mean ± S.E. of n observations using the Student's t test.

Sertoli cells = test: Cell death and apoptotic features in Lindane-treated Sertoli cells; format: cell-based, mouse
Protocol: as §1
(§2) The ultrastructural changes caused by Lindane or starvation in Sertoli and renal cells were analysed by transmission electron microscopy, as previously described (57). […] Cell pellets were then rinsed in cacodylate buffer, postfixed in 1% OsO4 for 1 h at 4°C, dehydrated through graded ethanol washes, and embedded in epoxy resin. Oriented […] sections were obtained with diamond knives, and representative areas were chosen for ultra-thin sectioning. Thin 1-µm sections were mounted on copper mesh grids, stained with uranyl acetate and lead citrate, and examined on a JEOL 1200 EXII electron microscope. 30-50 micrographs were taken randomly from each sample at primary magnification × 10,000.

p42^ERK2 and p44^ERK1 = test: ERK activation by anti-phospho-ERK Western blotting of cell lysates; format: cell-based, mouse
From the text: (§3) After stripping, equal loadings of proteins were verified by reprobing the blots with anti-ERK1 (Santa Cruz Biotechnology).

p38 = p38 / Jun kinase activation by Western blotting of Sertoli cell lysates; format: cell-based, mouse; details: Anisomycin 10 µg/ml, 15 min; phosphorylation of p38 and MK2
From the text: as §3

Sertoli 42GPA9 cells = test: Autophagic vacuolation of Sertoli cells (light, electron and confocal microscopy); format: cell-based, mouse
Protocol: Autophagy was induced either by starvation or by treatment with Lindane under nutrient-rich condition.
When bafilomycin A1 (BafA1, V-ATPase-specific inhibitor, 100 nM, Sigma); Park Davis Inhibitor PD98059 (MEK1-specific inhibitor, 10 µM, Cell Signaling), H89 (PKA inhibitor, 5 µM, Calbiochem), 3-Methyladenine (3 MA, autophagy-specific inhibitor, 10-30 mM, Sigma) or NPPB [5-nitro-2-(3-phenylpropylamino) benzoic acid, Cl^- channel blocker, 25 µM, Sigma] was used, it was added to the starvation medium for 90 min, prior to Lindane addition or nutrient deprivation.
as §2, with “Thin 1-µm sections were mounted on copper mesh grids, stained with uranyl acetate and lead citrate, and examined on a JEOL 1200 EXII electron microscope.” left out
Sertoli cells seeded on glass coverslips were transiently transfected with EGFP-Rab7 or MEK1^+-HA expression plasmids using Fugene 6 reagent (Roche), washed and allowed to recover overnight before addition of Lindane (50 µM). […] To determine the pH of the Lindane-induced vacuoles, living cells were stained with acridine-orange (5 µg/ml, Sigma), a membrane-permeable weak base whose fluorescence shifts from green at neutral pH to red in acidic compartments (59). 10 min later, cells were washed and directly observed under a confocal microscope.

CFTR Cl^- channel = test: Whole-cell patch-clamp Cl- currents in CFTR+/+ and CFTR-/- renal distal cells; format: cell-based, mouse
From the text: To address the importance of CFTR in autophagy, renal cells derived from distal tubules or the proximal convoluted tubules of Wild type (WT or CFTR^+/+) or CFTR deficient (CFTR^-/-) mice (40) were isolated and immortalized with the pSV3 neo vector, as described below (55).
Whole cell currents were monitored from Sertoli cells, CFTR^-/- and WT renal epithelial cells with an RK 400 amplifier (Biologic, Münster, Germany) as previously described (40). The bath (extracellular) solution consisted of 140 mM NMDGCl (N-methyl-D-glucamine chloride), 5 mM D-Glucose, 1 mM CaCl2, and 10 mM HEPES, pH 7.4. Patch pipette (intracellular) solution contained 140 mM NMDGCl, 5 mM D-Glucose, 5 mM EGTA, 5 mM MgATP, and 10 mM HEPES, pH 7.4. Osmolarity of both solutions was adjusted to 280 mOSM by adding mannitol. […] To generate whole cell current-voltage (I-V) relationship, membrane currents resulting from voltage stimuli were recorded for at least 3 min and analysed using an IBM-AT-compatible computer equipped with Digidata 1200 interface (Axon Instruments) and pCLAMP software (versions 5.51 and 6.0, Axon Instruments), respectively. Statistics-Results are expressed as mean ± S.E. of n observations using the Student's t test.

Which “distribution of CFTR” value (CFTR-EGFP) does the source give for `Cl[C@H]1[C@H](Cl)[C@@H](Cl)[C@@H](Cl)[C@H](Cl)[C@H]1Cl` [Lindane, γ-hexachlorocyclohexane] here?
Its value is “redistributed from plasma membrane to vacuoles”.

And the “induction of Cl- current in PCT cells” value (CFTR Δex10; CFTR^+/+ PCT cells, Lindane 50 µM, forskolin 10 µM)?
Its value is “induced a Cl- current”.

And the “Lindane-induced Cl- current in CFTR^-/- PCT cells” value (CFTR Δex10; CFTR^-/- PCT cells)?
Its value is “total inhibition”.

And the “anion selectivity sequence of induced current” value (CFTR Δex10; PCT cells)?
The value was “Br^-≥ Cl^- >>I^-”.

And the “reversal potential of induced current” value (CFTR Δex10; PCT cells)?
Its value is ~ 0 mV.

And the dead cells (Sertoli cells; Lindane 50 µM)?
Its dead cells is “little if any dead cells”.

What about the “propidium iodide staining of vacuolated cells” value (Sertoli cells; Lindane 50 µM, late stages) of the same molecule?
Its value is “did not stain with propidium iodide”.

What about the “apoptotic features (caspase 3 activation, PARP cleavage, chromatin condensation, nuclear pyknosis, mitochondria degeneration)” value (Sertoli cells; Lindane-treated cells) of the same molecule?
Its value is “absence of several apoptotic morphological and biochemical features”.

And the “cell lysis on longer exposure” value (Sertoli cells; exposure for four days)?
Its value is “not associated with cell lysis”.

What about the “ERK stimulation in CFTR^-/- cells” value (p42^ERK2 and p44^ERK1; CFTR^-/- renal cells) of the same molecule?
Its value is “still stimulated”.

And the “duration of ERK activation” value (p42^ERK2 and p44^ERK1; Sertoli cells, Lindane)?
The value was “more than 24 h”.

What about the “ERK activation in Sertoli cells” value (p42^ERK2 and p44^ERK1; Sertoli cells, Lindane 50 µM, DDT 1.8 µM, Bϕ 90 µM, PCP 15 µM) of the same molecule?
Its value is “rapid and sustained activation of both p42^ERK2 and p44^ERK1; also recorded: induced the activation of both p42^ERK2 and p44^ERK1”.

What about the “effect on Anisomycin-induced p38 activity” value (p38) of the same molecule?
The value was “not ascribed to p38 inhibition”.

What about the “size of autophagic vacuoles” value (Sertoli 42GPA9 cells; Lindane 50 µM, 24 h, electron microscopy) of the same molecule?
Its value is 2-20 µm^2.

What about the “autophagic vacuoles observed per cell” value (Sertoli 42GPA9 cells; Lindane 50 µM, 24 h, electron microscopy, n = 20 cells, average) of the same molecule?
The value was ~ 50.

What about the “induction of vacuolation / autophagy by the chemical alone” value (Sertoli 42GPA9 cells; Lindane 50 µM, DDT 1.8 µM, Bϕ 90 µM, PCP 15 µM, SB203580 10 µM, NH4Cl 5 mM, 24 h) of the same molecule?
Its value is “powerful activator of autophagy”.

And the “time of maximal vacuolation” value (Sertoli 42GPA9 cells; Lindane treatment)?
Its value is 24 to 48 h.

And the reversibility of vacuolation (Sertoli 42GPA9 cells; upon removal of the chemical)?
The reversibility of vacuolation was “reversible upon Lindane removal”.

What about the “induction of Cl^- currents in CFTR^+/+ renal distal cells” value (CFTR Cl^- channel; Lindane 50 µM) of the same molecule?
Its value is “induction of Cl^- currents”.

And the “reversed potential of induced currents” value (CFTR Cl^- channel; renal distal cells, n = 8)?
The value was ~ 0 mV.
